# Measured values as given in paper PMC5784442 (ACS catalysis, 2017).
# Legend:
# ‘TesA [1] = molecular target: T1, ‘TesA (Escherichia coli, UniProt P0ADA1); test: DTNB assay at […] nm, free CoA release; type: biochemical; conditions: 0-120 µM substrate, 40 nM enzyme
# T1 sequence (P0ADA1 27-208): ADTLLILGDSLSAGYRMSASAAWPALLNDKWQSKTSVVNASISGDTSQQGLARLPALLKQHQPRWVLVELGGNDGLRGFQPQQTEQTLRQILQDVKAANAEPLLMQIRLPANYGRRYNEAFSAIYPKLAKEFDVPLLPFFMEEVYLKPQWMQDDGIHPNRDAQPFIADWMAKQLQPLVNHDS
# ‘TesA [2] = molecular target: T1, ‘TesA; test: X-ray crystal structure, […] A; type: binding; conditions: 3 mM octanoic acid, Homo-PIPES pH 5.0
SMILES,"DTNB assay at 412 nm, free CoA release (‘TesA [1])","X-ray crystal structure, 1.65 A (‘TesA [2])"
"CCCCCCCC(=O)SCCNC(=O)CCNC(=O)[C@H](O)C(C)(C)COP(=O)(O)OP(=O)(O)OC[C@H]1O[C@@H](n2cnc3c(N)ncnc32)[C@H](O)[C@@H]1OP(=O)(O)O [C8-CoA, octanoyl-CoA]",‘TesA WT and R3.M4 activity on C8-CoA,
"CCCCCCCC(=O)O [C8, octanoic acid]",,Crystal structures of WT ‘TesA and R3.M4 bound to octanoic acid were solved
"CCCCCCCCCCCC(=O)SCCNC(=O)CCNC(=O)[C@H](O)C(C)(C)COP(=O)(O)OP(=O)(O)OC[C@H]1O[C@@H](n2cnc3c(N)ncnc32)[C@H](O)[C@@H]1OP(=O)(O)O [C12-CoA, dodecanoyl-CoA]","highest in vitro ‘TesA WT activity (Figure 7A) was observed for C12-CoA, C14-CoA and C16-CoA",
